Results published in PMC8474116, “Discovery of Novel Acetamide-Based Heme Oxygenase-1 Inhibitors with Potent In Vitro Antiproliferative Activity” (Journal of Medicinal Chemistry, 2021).

Key:
[1] = tested on: VEGF; experiment: VEGF intracellular expression by Western blot, U87MG; assay type: cell-based, human; conditions: 10 μM, 48 h
Procedure: (§1) Proteins were extracted from total cell lysate, as previously described.[61] Briefly, cell lines were added to a buffer containing 20 mM Tris (pH 7.4), 2 mM EDTA, 0.5 mM EGTA, 50 mM mercaptoethanol, and […] sucrose supplemented with phosphatase and protease inhibitor cocktails (Roche Diagnostics, Monza, Italy). Subsequently, protein samples were sonicated twice for 20′ by using an ultrasonic probe, followed by centrifugation at 10 000g for 10 min at 4 °C. Sample proteins (30 μg) were diluted in 4X NuPage LDS sample buffer (Invitrogen, NP0007), heated at 80 °C for 5 min, and then separated on a Biorad Criterion XT 4–15% Bis–Tris gel (BIO-RAD) by electrophoresis and then transferred to a PVDF membrane (BIO-RAD). Blots were blocked using the Odyssey Blocking Buffer (LI-COR Biosciences) and probed with appropriate antibodies: HO-1 antibody (GeneTex GTX101147), goat polyclonal anti-VEGF (cat. no. sc-1836, Santa Cruz Biotechnology), and rabbit polyclonal anti-β-tubulin (cat n.sc-9104, Santa Cruz Biotechnology) and β-actin antibody (GeneTex GTX109639).
(§2) The secondary antibodies goat antirabbit (Odyssey, #926-32211; Odyssey #926-68021) and donkey antigoat IRDye 800CW (cat #926-32214; Li-Cor Biosciences) were used at 1:7000. Blots were scanned, and densitometric analysis was performed with the Odyssey Infrared Imaging System. Values were normalized to β-actin and to β-tubulin.

[2] = tested on: HO; experiment: HO enzymatic activity in U87MG cell line (cell lysate, bilirubin formation); assay type: cell-based, human; conditions: U87MG treated with 10 μM
Procedure: U87MG cells were incubated for 24 h in the presence or absence of 10 μM of compound 7l. Total HO activity in the cell lysate was determined by measuring the bilirubin formation using the difference in absorbance at 464–530 nm.[2] Reaction mixtures (500 μL) consisted of 20 mM of Tris–HCl, pH 7.4, 1 mg/mL of cell lysate, 0.5–2 mg/mL of biliverdin reductase, 1 mM of NADPH, 2 mM of glucose 6-phosphate (G6P), 1 U of G6P dehydrogenase, 25 μM of hemin, and 10 μL of DMSO. Incubations were carried out for 60 min at 37 °C in a circulating water bath in the dark. Reactions were stopped by adding 1 volume of chloroform. After recovering the chloroform phase, the amount of bilirubin formed was measured with a double-beam spectrophotometer as OD464–530 nm (extinction coefficient, 40 mM/cm for bilirubin). One unit of the enzyme was defined as the amount of enzyme catalyzing the formation of 1 nmol of bilirubin/mg protein/h.

[3] = molecular target: T1, hERG potassium channel (Homo sapiens, UniProt Q12809); experiment: hERG human potassium ion channel binding (Eurofins)
T1 construct: Eurofins Scientific (contract assay) 4094
T1 sequence (Q12809 whole entry): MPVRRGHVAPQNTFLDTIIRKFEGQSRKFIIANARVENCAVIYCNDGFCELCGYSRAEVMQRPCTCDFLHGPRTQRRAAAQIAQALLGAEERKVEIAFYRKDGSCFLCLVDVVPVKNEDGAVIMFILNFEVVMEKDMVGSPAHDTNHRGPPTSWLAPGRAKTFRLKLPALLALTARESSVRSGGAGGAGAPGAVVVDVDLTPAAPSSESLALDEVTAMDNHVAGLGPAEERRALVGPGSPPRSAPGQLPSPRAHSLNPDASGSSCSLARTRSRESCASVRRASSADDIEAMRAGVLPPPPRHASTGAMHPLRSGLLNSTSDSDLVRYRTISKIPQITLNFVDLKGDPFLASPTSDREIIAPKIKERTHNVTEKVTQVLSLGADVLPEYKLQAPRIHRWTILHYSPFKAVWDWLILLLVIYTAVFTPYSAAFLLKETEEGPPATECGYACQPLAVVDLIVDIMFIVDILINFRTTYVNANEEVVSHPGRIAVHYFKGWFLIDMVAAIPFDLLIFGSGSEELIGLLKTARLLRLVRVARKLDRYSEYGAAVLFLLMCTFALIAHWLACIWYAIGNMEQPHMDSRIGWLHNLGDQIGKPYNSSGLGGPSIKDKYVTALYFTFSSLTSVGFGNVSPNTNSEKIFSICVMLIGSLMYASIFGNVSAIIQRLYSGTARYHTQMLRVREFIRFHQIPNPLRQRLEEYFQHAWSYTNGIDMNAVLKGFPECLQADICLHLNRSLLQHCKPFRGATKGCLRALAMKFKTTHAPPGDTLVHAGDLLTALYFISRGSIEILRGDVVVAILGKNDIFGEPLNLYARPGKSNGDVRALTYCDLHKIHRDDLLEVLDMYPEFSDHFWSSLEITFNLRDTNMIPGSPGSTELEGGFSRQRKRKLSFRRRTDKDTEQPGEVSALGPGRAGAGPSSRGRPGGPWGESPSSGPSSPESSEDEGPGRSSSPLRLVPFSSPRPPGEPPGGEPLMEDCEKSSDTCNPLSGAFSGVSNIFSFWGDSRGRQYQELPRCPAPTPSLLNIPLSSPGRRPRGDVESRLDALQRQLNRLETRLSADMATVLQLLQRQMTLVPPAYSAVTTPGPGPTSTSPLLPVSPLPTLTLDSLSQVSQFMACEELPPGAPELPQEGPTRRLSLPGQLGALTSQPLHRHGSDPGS
Source text: In vitro ADMET testing has been performed at Eurofins Scientific.

[4] = tested on: VEGF-A; experiment: VEGF-A release in conditioned media, ELISA, U87MG; assay type: cell-based, human; conditions: 10 μM, 48 h
Procedure: VEGF-A release in conditioned media was measured using the ELISA sandwich enzymatic method with specific anti-VEGF-A (cat. No. ELH-VEGF) antibodies coated on a 96-well plate, according to the manufacturer’s guidelines. Briefly, confluent U87MG cells grown in media supplemented with 1% FBS were treated for 48 h with 10 μM of 7l. Standards and supernatants from samples were pipetted into the wells containing the immobilized VEGF antibody. The wells were then washed before adding a biotinylated antihuman VEGF antibody. Following incubation, the unbound biotinylated antibody was washed off, and HRP-conjugated streptavidin was pipetted in each well. After an additional wash step, a TMB substrate solution was added to each well, resulting in blue coloration proportional to the amount of bound VEGF. Finally, the stop solution was added, and the colorimetric intensity of the blue substrate now turned yellow was measured at 450 nm.

[5] = tested on: U87MG cells; experiment: Wound-healing assay, U87MG; assay type: cell-based, human; conditions: 10 μM, vs control at 24 and 48 h
Procedure: U87MG cells grown to confluence in 6-well dishes (5 × 10^4 cells/well) were scratched with a 200 μL pipette tip. Cells were cultured in a 1% serum medium with or without 10 μM of 7l. Quantitative assessment of the wound area was performed under an inverted microscope, as previously described.[63] The distance that the advancing cells had moved into the wound area was measured after 24 and 48 h. The migration was calculated as the average number of cells observed in three random of high-power wounded fields/per well in duplicate wells and expressed in percentage of control (% of control).

[6] = tested on: HO-1; experiment: HO-1 protein expression by Western blot, A549; assay type: cell-based, human; conditions: A549, 10 μM, 48 h
Procedure: as §1, §2

[7] = tested on: DU145 cells; experiment: MTT cell viability assay, DU145; assay type: cell-based; conditions: 48 h, 1 μM and 10 μM
Procedure: Experiments were performed on human GBM cell lines U87MG (ATCCC number #HTB-14) and A172 (ATCCC #CRL-1620) on DU145 (ATCC HTB-81) and human lung adenocarcinoma A549 (ATCC CCL-185-LUC2). All cell lines were obtained from the American Type Culture Collection (ATCC, Rockville, MD). Cells were grown in Dulbecco’s modified Eagle’s medium (DMEM) supplemented with 10% of heat-inactivated fetal bovine serum (FBS), 100 U/mL of penicillin, and 100 μg/mL of streptomycin (Sigma-Aldrich, Steinheim, Germany). Cells were incubated at 37 °C in a humidified atmosphere with 5% CO2.
The effect of selected compounds 7i and 7l–p on cell viability was assessed by performing an MTT assay. Cells were seeded into 96-well plates at a density of 7 × 10^3 cells/well in 100 μL of culture medium. After 24 h, cells were treated with selected compounds at three different concentrations (1 μM, 10 μM, and 50 μM) for 48 h. Following treatments, 0.5 mg/mL of 3-[4,5-dimethylthiazol-2-yl]-2,5-diphenyltetrazolium bromide (MTT) (Sigma-Aldrich) was added to each well and incubated for 4 h at 37 °C. Finally, dimethyl-sulfoxide (DMSO) was used to dissolve formazan salts, and absorbance was measured at 570 nm in a microplate reader (Biotek Synergy-HT). Eight replicate wells were used for each group.

SMILES | VEGF intracellular expression (in words) [1] | HO enzymatic activity in cell lysates (in words) [2] | inhibition at 1 µM [3] [%] | VEGF release in the culture medium (in words) [4] | cell motility, wound-healing assay (in words) [5] | HO-1 protein expression (in words) [6] | cell viability reduction (in words) [7]
CN(C(=O)Cn1ccnc1)C(c1ccccc1)c1ccc(Cl)cc1 (stereo not shown) [7l, N-((4-Chlorophenyl)(phenyl)methyl)-2-(1H-imidazol-1-yl)-N-methylacetamide] | significant reduction | reduced HO activity | 5.7 | significant reduction | drastically reduced | – | –
CN(C(=O)Cn1ccnc1)C(c1ccccc1)c1ccc(OCc2ccccc2)cc1 (stereo not shown) [7o, N-((4-(Benzyloxy)phenyl)(phenyl)methyl)-2-(1H-imidazol-1-yl)-N-methylacetamide] | – | – | – | – | – | upregulated its expression | had efficacies
